Reference: patent US11780845B2 (Relay Therapeutics, Inc., priority 2019, dated 2023)
pIC50: −log10 of the molar value.

What was measured:
FGFR2 = FGFR2 (Homo sapiens (Human), UniProt P21802); assay: FGFR2 Biochemical Caliper Assay
Protocol: Compounds of the present invention were also tested in a FGFR2 Biochemical Caliper Assay. Compounds were prepared in 10 mM DMSO solution and serially diluted into 11 concentrations by 3-fold dilution. […] 5 uL of ATP solution (100 uM) was added to start the reaction and the plate was incubated for 90 minutes, then 70 uL of stopping buffer (0.5M EDTA) was added to terminate the reaction. Each well was analyzed using EZ reader.

SNU16 cells = assay: SNU16 Cancer Cell Line Proliferation Assay; type: cell-based; details: Homo sapiens; SNU-16 cells
In short: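 SNU16 cells were seeded, held 24 h at 37 degrees, then dosed with an 11-point 3-fold dilution series prepared from a 10 mM DMSO stock. After 96 h incubation, viability was read by CellTiter Glo luminescence.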

Chain of FGFR2 (P21802 22-821): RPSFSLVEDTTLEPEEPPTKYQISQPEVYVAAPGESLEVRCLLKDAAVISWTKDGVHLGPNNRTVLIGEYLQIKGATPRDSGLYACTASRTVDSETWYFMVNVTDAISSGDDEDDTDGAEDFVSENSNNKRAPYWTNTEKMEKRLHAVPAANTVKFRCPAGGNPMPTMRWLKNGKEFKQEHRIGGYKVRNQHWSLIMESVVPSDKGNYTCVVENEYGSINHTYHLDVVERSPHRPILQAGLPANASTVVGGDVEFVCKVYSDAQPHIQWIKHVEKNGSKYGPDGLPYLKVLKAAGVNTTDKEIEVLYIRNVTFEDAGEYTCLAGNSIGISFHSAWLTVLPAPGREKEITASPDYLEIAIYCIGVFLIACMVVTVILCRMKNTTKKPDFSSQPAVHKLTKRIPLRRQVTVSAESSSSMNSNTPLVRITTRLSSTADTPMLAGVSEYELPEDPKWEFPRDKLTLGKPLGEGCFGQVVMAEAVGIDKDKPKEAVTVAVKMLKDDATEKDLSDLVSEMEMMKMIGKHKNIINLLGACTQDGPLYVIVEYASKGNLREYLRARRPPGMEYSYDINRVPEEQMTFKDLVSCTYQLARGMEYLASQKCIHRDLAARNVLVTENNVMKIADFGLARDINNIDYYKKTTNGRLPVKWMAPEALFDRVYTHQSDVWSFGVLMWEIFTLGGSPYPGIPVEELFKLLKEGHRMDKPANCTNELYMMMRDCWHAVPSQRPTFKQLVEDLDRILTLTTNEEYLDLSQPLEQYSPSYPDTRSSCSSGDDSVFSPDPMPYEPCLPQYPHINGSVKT

| SMILES | pIC50 (FGFR2) | pIC50 (SNU16 cells) |
| --- | --- | --- |
| C=CC(=O)N1CCC(c2c(-c3ccc(S(=O)(=O)C4CC4)cc3)c3c(N)ncnc3n2C)C1 (centres unmarked) [Example 785] | > 7.00 | ≥ 7.00 |
| C=CC(=O)Nc1ccc(-c2[nH]c3ncnc(N)c3c2-c2ccc(C(=O)N3CCCC3)cc2)cc1 [Example 786] | 6.00 to 6.60 | 4.00 to 6.00 |
| CC#CC(=O)Nc1ccc(-c2[nH]c3ncnc(N)c3c2-c2ccc(Oc3cccc(C)n3)c(OC)c2)cc1 [Example 787] | > 7.00 | ≥ 7.00 |
| C=C(C)C(=O)Nc1ccc(-c2[nH]c3ncnc(N)c3c2-c2ccc(Oc3cccc(C)n3)c(OCC)c2)cc1 [Example 788] | > 7.00 | ≥ 7.00 |
| C=CC(=O)N1CCC(c2c(-c3ccc(CN4CCOCC4=O)cc3)c3c(N)ncnc3n2C)C1 (centres unmarked) [Example 789] | 4.00 to 6.00 | 4.00 to 6.00 |

More lines, now with the values ahead:

| pIC50 (FGFR2) | pIC50 (SNU16 cells) | SMILES |
| --- | --- | --- |
| 6.00 to 6.60 | 4.00 to 6.00 | C=CC(=O)N1CCC(c2c(-c3ccc(C(O)C4CC4)cc3)c3c(N)ncnc3n2C)C1 (centres unmarked) [Example 790] |
| 6.00 to 6.60 | 6.00 to 6.60 | C=CC(=O)N1CCC(c2c(-c3ccc(N(C)C4CCOCC4)cc3)c3c(N)ncnc3n2C)C1 (centres unmarked) [Example 791] |
| 6.60 to 7.00 | 6.60 to 7.00 | C=CC(=O)N1CCC(c2c(-c3ccn(Cc4ccccc4)c(=O)c3)c3c(N)ncnc3n2C)C1 (centres unmarked) [Example 792] |
| 6.00 to 6.60 | 4.00 to 6.00 | C=CC(=O)N1CCC(c2c(-c3cnn(C4CNC4)c3)c3c(N)ncnc3n2C)C1 (centres unmarked) [Example 793] |
| 4.00 to 6.00 | 4.00 to 6.00 | C=CC(=O)N1CCC(c2c(-c3ccc(Cn4ccccc4=O)cc3)c3c(N)ncnc3n2C)C1 (centres unmarked) [Example 794] |
| 4.00 to 6.00 | 4.00 to 6.00 | C=C(C)C(=O)Nc1ccc(-c2cn3ncnc(N)c3c2-c2ccc(Oc3cccc(C)n3)cc2)cc1 [Example 795] |
| > 7.00 | ≥ 7.00 | C=C(C)C(=O)Nc1ccc(-c2[nH]c3ncnc(N)c3c2-c2ccc(C(=O)N3CCCC3)cc2)cc1 [Example 796] |
| 6.00 to 6.60 | 6.00 to 6.60 | C=CC(=O)N1CCC(c2c(-c3ccc(CN4CCCS4(=O)=O)cc3)c3c(N)ncnc3n2C)C1 (centres unmarked) [Example 797] |
